We go through 2 molecules from patent US12496350B2 (Ohio State Innovation Foundation, priority 2018, dated 2025).

Where a SMILES comes first, the peptide text is derived from it. [ ]: non-standard residue; d: D form. 2Nal = N[C@@H](Cc1ccc2ccccc2c1)C(=O)O; Bta = N[C@@H](Cc1csc2ccccc12)C(=O)O; Pen = CC(C)(S)[C@H](N)C(=O)O; Tle = CC(C)(C)[C@H](N)C(=O)O

Data set [1] can be described thus: Preliminary tests of cellular activity. In kind it is cell-based. The note with it: 50 nM concentration.
The test system of data set [2] is HeLa cells. Briefly: Cellular uptake efficiency by flow cytometry. Type of data set: cell-based. The method, then:
(§1) Cellular Uptake Efficiency: HeLa cells were seeded into 12-well cell-culture treated plates at a final density of 15×10^4 cells/well in DMEM supplemented with 10% FBS and 1% penicillin/streptomycin and incubated overnight at 37° ° C. and 5% CO2. After 24 h, the media was aspirated followed by washing the cells three times with warm DPBS. Peptides were diluted to a final concentration of 5 μM in DMEM containing 10% FBS with 1% penicillin/streptomycin, added to each well and then incubated for 2 h at 37° C. and 5% CO2. After 2 h, treatment media was aspirated and the cells were washed three times with ice-cold DPBS. Cells were removed from the plate via treatment with trypsin/EDTA and then harvested in ice-cold DPBS followed by centrifugation at ×300 RCF, 4° C. for 5 min. Cells were resuspended in DPBS and quantified using a BD Biosciences LSR II flow cytometer and gated using FlowJo. Values for uptake are provided as a percentage relative to positive control, CPP9 ([cyclo-fΦRrRrQ]-miniPEG-K[NF]).
as §1, with “Cellular Uptake. HeLa cells” for “Cellular Uptake Efficiency: HeLa cells”, “at 37° C. and” for “at 37° ° C. and”, “37° C. with 5% CO2.” for “37° C. and 5% CO2.”, “centrifugation at 300 g, 4° C.” for “centrifugation at ×300 RCF, 4° C.”, “control, CPP9 ([cyclo-fΦRrRrQ]-miniPEG-K[NF]), which has a 62% cytosolic entry efficiency. PGD97 entered HeLa cells at 60% efficiency relative to CPP9, corresponding to an absolute cytosolic entry efficiency of ˜36% (FIG. 9).” for “control, CPP9 ([cyclo-fΦRrRrQ]-miniPEG-K[NF]).”

Data set [3] addresses T1, CAL PDZ domain (CALP5-His) (Homo sapiens, UniProt Q9HD26).
T1 construct: His
In words: FP-based competition assay, Condition B (probe FAM-[…]-OH). In kind it is binding. The procedure: Serial dilutions of each competitor peptide were prepared in PBS and the incubation solution was added to each. The combined solutions were gently mixed for 1 h at RT after which 20 uL sample was pipetted into 384-well black-on-black microplates and fluorescence polarization was measured using a TECAN Infinite M1000 plate reader. Data was processed to determine IC50 using GraphPad PRISM ver. 6.0.

Data set [4] has as its system HeLa cells. The following applies: positive control value; cited from earlier work.

A word on the IC50: it is the point on the concentration scale where inhibition reaches its midpoint. A low value points to higher potency. Consider `CC(=O)N[C@@H](CS)C(=O)N[C@H](CCCNC(=N)N)C(=O)N[C@@H](CCCNC(=N)N)C(=O)N[C@@H](CCCNC(=N)N)C(=O)N[C@@H](Cc1ccc2ccccc2c1)C(=O)N[C@@H](Cc1csc2ccccc12)C(=O)N[C@H](C(=O)N[C@H](C(=O)N[C@H](C(=O)N[C@@H](CCCNC(=N)N)C(=O)N[C@H](C(=O)O)C(C)(C)C)[C@@H](C)O)C(C)(C)C)C(C)(C)S` [Compound 25, Ac-Cys-(D-Arg)-Arg-Arg-(2-Nal)-(Bta)-Pen-Tle-Thr-Arg-Tle-OH] (Ac-C[dR]RR[2Nal][Bta][Pen][Tle]TR[Tle]-OH), for which the cellular activity result in data set [1] is “robust cellular activity”. The molecule also had an improvement in cell-permeability in data set [2] (Bta for Trp at P-5, relative to peptide 24) above 5 fold. In addition, the “Uptake (% rel.)” value in data set [2] (HeLa cells, 5 μM, 2 h, relative to CPP9 (100%)) is 518 ± 74%. The “cell-permeability, fold better” value in data set [2] (relative to CPP9) is recorded as 5 fold; in data set [2] (relative to peptide 20) it was around 20 fold. The same molecule had an IC50 in data set [3] (Condition B (superscript b): 100 nM probe FAM-[…]-OH, 500 nM CALP5-His, 5 mM DTT) of 235 nM. Also, in data set [3] (relative to peptide 24), the “potency in CAL binding, fold more potent” value came out at 1.5 fold.

In the case of [cyclo-fΦRrRrQ]-miniPEG-K[NF] [CPP9], the cytosolic entry efficiency in data set [4] is 62%.
